From EPA's ToxRefDB 2

Columns and labels:
rat [1] = details: Subchronic inhalation toxicity, wistar, Whole-Body, dose end: 13 week, group: systemic, systemic / pathology microscopic / lung / alveolar macrophages + systemic / in life observation / body weight / body weight
rat [2] = details: Subchronic inhalation toxicity, wistar, Whole-Body, dose end: 13 week, group: systemic
rat [3] = details: Subchronic inhalation toxicity, wistar, Whole-Body, dose end: 13 week, group: systemic, systemic / pathology microscopic / lung / alveolar macrophages + systemic / pathology microscopic / lung / fibrosis + systemic / pathology …
rat [4] = details: Subchronic inhalation toxicity, wistar, Whole-Body, dose end: 13 week, group: systemic, systemic / clinical chemistry / alanine aminotransferase (alt/sgpt) / alanine aminotransferase (alt/sgpt) + systemic / clinical chemistry / …
rabbit [5] = details: Prenatal developmental toxicity study, Injection, Intravenous, dose end: 18 GD
rat [6] = details: Sub-acute repeat dose toxicity, Injection, Intravenous, dose end: 5 day, group: systemic
rabbit [7] = details: Sub-acute repeat dose toxicity; Injection; Intravenous; dose end: 5 day; group: systemic; systemic / in life observation / clinical signs / altered breathing rate + systemic / in life observation / clinical signs / labored …
rat [8] = details: Subchronic oral toxicity in rodents, fischer, Feed, dose end: 13 week, group: systemic
dog [9] = details: Subchronic oral toxicity in nonrodent, beagle, Feed, dose end: 13 week, group: systemic
mouse [10] = details: Subchronic oral toxicity in rodents, cd1, Feed, dose end: 90 day, group: systemic
rat [11] = details: Subchronic oral toxicity in rodents, sprague dawley, Feed, dose end: 90 day, group: systemic
mouse [12] = details: Subchronic oral toxicity in rodents, cd1, Feed, dose end: 13 week, group: systemic
rat [13] = details: Combined chronic toxicity/carcinogenicity; fischer; Oral; Feed; dose end: 104 week; group: systemic; systemic / pathology microscopic / kidney / hemosiderosis
mouse [14] = details: Subchronic oral toxicity in rodents, cd1, Feed, dose end: 13 week, group: systemic; remark: listed apart in the source
dog [15] = details: Chronic toxicity, beagle, Oral, Feed, dose end: 12 month, group: systemic
mouse [16] = details: Subchronic oral toxicity in rodents, b6c3f1, Feed, dose end: 13 week, group: systemic
mouse [17] = details: Subchronic oral toxicity in rodents, cd1, Water, dose end: 90 day, group: systemic, systemic / hematology / leukocyte (wbc) count differential / leukocyte (wbc)
mouse [18] = details: Carcinogenicity, b6c3f1, Oral, Feed, dose end: 2 year, group: systemic
rat [19] = details: Carcinogenicity, fischer, Oral, Feed, dose end: 2 year, group: systemic
rat [20] = details: Prenatal developmental toxicity study, fischer, Oral, Gavage/Intubation, dose end: 15 GD
rat [21] = details: Multigenerational reproductive toxicity study, wistar, Oral, Feed, dose end: 2 generation
rat [22] = details: Subchronic oral toxicity in rodents, fischer, Feed, dose end: 13 week, group: systemic; remark: listed apart in the source
[23] = systemic / pathology microscopic / lung / alveolar macrophages + systemic / pathology microscopic / lung / cholesterol cleft(s) + systemic…
[24] = group: developmental, developmental / developmental malformation / bone / incomplete ossification + systemic / in life observation / body weight / fetal weight
[25] = group: maternal, systemic / in life observation / body weight / body weight + systemic / in life observation / body weight / body weight gain + systemic / in…
[26] = systemic / pathology microscopic / ovary / degeneration + systemic / clinical chemistry / albumin / albumin + systemic / clinical chemistry…
[27] = systemic / clinical chemistry / albumin / albumin
[28] = systemic / clinical chemistry / potassium / potassium
[29] = systemic / organ weight / thymus / absolute + systemic / organ weight / thymus / relative to body weight + systemic / pathology gross / …
[30] = systemic / in life observation / body weight / body weight + systemic / in life observation / body weight / body weight gain + systemic / in…
[31] = systemic / organ weight / kidney / absolute + systemic / organ weight / liver / absolute + systemic / organ weight / liver / relative to …
[32] = systemic / organ weight / kidney / absolute + systemic / organ weight / kidney / relative to body weight + systemic / pathology microscopic…
[33] = systemic / pathology gross / gallbladder / [other] + systemic / pathology gross / gallbladder / distended + systemic / pathology microscopic…
[34] = systemic / pathology microscopic / liver / necrosis
[35] = systemic / in life observation / body weight / body weight
[36] = systemic / in life observation / body weight / body weight + systemic / in life observation / food consumption / food consumption
[37] = systemic / in life observation / food consumption / food consumption
[38] = group: developmental, developmental / developmental malformation / bone / delayed ossification + developmental / developmental malformation / bone / unossified + …
[39] = group: maternal, systemic / in life observation / body weight / body weight gain + systemic / in life observation / clinical signs / urogenital staining
[40] = group: offspring, systemic / pathology gross / mammary gland / discolored + systemic / pathology gross / mammary gland / enlarged
[41] = group: parental, systemic / in life observation / clinical signs / body surface staining + systemic / in life observation / body weight / body weight + …
[42] = group: parental, systemic / organ weight / pituitary gland / absolute + systemic / organ weight / pituitary gland / relative to body weight
[43] = group: reproductive, reproductive / reproductive performance / implantations / implantations
[44] = systemic / in life observation / body weight / body weight + systemic / pathology microscopic / bone marrow / atrophy + systemic / in life …

In the case of `O=[Si]=O` [Silica], the LEL (rat [1]) is reported as 0.03 ppm, the LOAEL (rat [1]) is reported as > 0.03 ppm and the NEL (rat [1]) is reported as < 0.03 ppm. The NOAEL (rat [1]) was ≥ 0.03 ppm, the LOAEL (rat [2]; [23]) was > 0.03 ppm and the NOAEL (rat [2]; [23]) was ≥ 0.03 ppm. The LEL (rat [2]; systemic / pathology microscopic / lung / proliferation) was 0.001 ppm, the LEL (rat [3]) was 0.03 ppm and the LOAEL (rat [3]) was > 0.03 ppm. For the same molecule, the NEL (rat [3]) was < 0.03 ppm, the NOAEL (rat [3]) was ≥ 0.03 ppm and the LEL (rat [4]) was 0.06 ppm. The LOAEL (rat [4]) was > 0.06 ppm, the NEL (rat [4]) was < 0.06 ppm and the NOAEL (rat [4]) was ≥ 0.06 ppm.

With `NC(N)=NC(=O)c1cnn(-c2cccc3ncccc23)c1C1CC1` [Zoniporide] the LEL (rabbit [5]; [24]) was 100 mg/kg/day, the LOAEL (rabbit [5]; [24]) was > 100 mg/kg/day and the NOAEL (rabbit [5]; [24]) was ≥ 100 mg/kg/day. For the same molecule, the LEL (rabbit [5]; [25]) was 100 mg/kg/day, the LOAEL (rabbit [5]; [25]) was > 100 mg/kg/day and the NEL (rabbit [5]; [25]) was 30 mg/kg/day. For the same molecule, the NOAEL (rabbit [5]; [25]) was ≥ 100 mg/kg/day, the NEL (rat [6]; systemic / pathology microscopic / blood vessel / inflammation + systemic / pathology microscopic / blood vessel / necrosis) was < 25 mg/kg/day and the LOAEL (rat [6]; [26]) was > 250 mg/kg/day. For the same molecule, the NOAEL (rat [6]; [26]) was ≥ 250 mg/kg/day, the LOAEL (rabbit [7]) was > 250 mg/kg/day and the NEL (rabbit [7]) was 50 mg/kg/day. The NOAEL (rabbit [7]) was ≥ 250 mg/kg/day.

`CCCCOC(=O)[C@@H](C)Oc1ccc(Oc2ccc(C#N)cc2F)cc1` [Cyhalofop-butyl] was tested, and the LEL (rat [8]; [27]) was 1.72 mg/kg/day, the NEL (rat [8]; [27]) was < 1.72 mg/kg/day and the NOAEL (rat [8]; systemic / clinical chemistry / albumin / albumin + systemic / pathology microscopic / kidney / [other] + systemic / pathology microscopic…) was 60.5 mg/kg/day. For the same molecule, the LOAEL (rat [8]; systemic / pathology microscopic / kidney / [other] + systemic / pathology microscopic / kidney / pigmentation + systemic / pathology …) was 190 mg/kg/day, the LEL (dog [9]; [28]) was 3.17 mg/kg/day and the NEL (dog [9]; [28]) was < 3.17 mg/kg/day. For the same molecule, the LOAEL (dog [9]; [29]) was 75.2 mg/kg/day, the NOAEL (dog [9]; [29]) was 14.7 mg/kg/day and the LEL (mouse [10]; systemic / organ weight / liver / absolute) was 3.6 mg/kg/day. It also gave an NEL (mouse [10]; systemic / organ weight / liver / absolute + systemic / in life observation / clinical signs / alopecia + systemic / organ weight / liver / …) of 0.4 mg/kg/day, an LOAEL (mouse [10]; systemic / pathology gross / kidney / enlarged + systemic / pathology microscopic / kidney / hypertrophy) of 14.1 mg/kg/day and an NOAEL (mouse [10]; systemic / pathology gross / kidney / enlarged + systemic / pathology microscopic / kidney / hypertrophy + systemic / organ weight / kidney…) of 4.3 mg/kg/day. For the same molecule, the LOAEL (rat [11]; [30]) was 800 mg/kg/day, the NOAEL (rat [11]; [30]) was 400 mg/kg/day and the LEL (rat [11]; systemic / organ weight / liver / absolute + systemic / organ weight / liver / relative to body weight + systemic / pathology gross / liver…) was 25 mg/kg/day. The LOAEL (mouse [12]; [31]) was > 350 mg/kg/day, the NOAEL (mouse [12]; [31]) was ≥ 350 mg/kg/day and the LEL (mouse [12]; systemic / pathology gross / liver / foci) was 3 mg/kg/day. It also gave an NEL (mouse [12]; systemic / pathology gross / liver / foci + systemic / clinical chemistry / alkaline phosphatase (alp/alk) / alkaline phosphatase (alp/alk…) of 1 mg/kg/day, an LEL (rat [13]) of 3.44 mg/kg/day and an LOAEL (rat [13]) of 3.44 mg/kg/day. It also gave an NEL (rat [13]) of 0.823 mg/kg/day, an NOAEL (rat [13]) of 0.823 mg/kg/day and an LOAEL (mouse [14]; [32]) of 30 mg/kg/day. It also gave an NOAEL (mouse [14]; [32]) of 10 mg/kg/day, an LEL (mouse [14]; systemic / organ weight / liver / relative to body weight) of 3 mg/kg/day and an NEL (mouse [14]; systemic / pathology microscopic / liver / inflammation + systemic / pathology microscopic / liver / necrosis + systemic / organ weight / …) of 1 mg/kg/day. For the same molecule, the LEL (dog [15]; systemic / in life observation / body weight / body weight + systemic / in life observation / body weight / body weight gain) was 7.59 mg/kg/day, the NEL (dog [15]; systemic / in life observation / body weight / body weight + systemic / in life observation / body weight / body weight gain + systemic / …) was 1.22 mg/kg/day and the LOAEL (dog [15]; [33]) was > 45.9 mg/kg/day. The NOAEL (dog [15]; [33]) was ≥ 45.9 mg/kg/day.

In the case of `Oc1ccc(Cl)cc1Cl` [2,4-Dichlorophenol], the NOAEL (mouse [16]; systemic / in life observation / body weight / body weight + systemic / in life observation / clinical signs / fur (altered appearance) + …) is reported as 1500 mg/kg/day, the LOAEL (mouse [16]; systemic / in life observation / body weight / body weight + systemic / pathology microscopic / liver / necrosis + systemic / pathology …) is reported as 3000 mg/kg/day and the LEL (mouse [16]; [34]) is reported as 375 mg/kg/day. For the same molecule, the NEL (mouse [16]; [34]) was < 375 mg/kg/day, the LEL (mouse [17]) was 383 mg/kg/day and the LOAEL (mouse [17]) was > 383 mg/kg/day. For the same molecule, the NEL (mouse [17]) was 114 mg/kg/day, the NOAEL (mouse [17]) was ≥ 383 mg/kg/day and the LOAEL (mouse [18]; [35]) was 430 mg/kg/day. The NOAEL (mouse [18]; [35]) was < 430 mg/kg/day, the LEL (mouse [18]; [36]) was 430 mg/kg/day and the NEL (mouse [18]; [36]) was < 430 mg/kg/day. The LEL (rat [19]; [37]) was 120 mg/kg/day, the NEL (rat [19]; [37]) was < 120 mg/kg/day and the LOAEL (rat [19]; systemic / pathology microscopic / nose / degeneration) was 210 mg/kg/day. The LEL (rat [20]; [38]) was 750 mg/kg/day, the LOAEL (rat [20]; [38]) was > 750 mg/kg/day and the NEL (rat [20]; [38]) was 375 mg/kg/day. For the same molecule, the NOAEL (rat [20]; [38]) was ≥ 750 mg/kg/day, the LOAEL (rat [20]; [25]) was > 750 mg/kg/day and the NOAEL (rat [20]; [25]) was ≥ 750 mg/kg/day. The LEL (rat [20]; [39]) was 200 mg/kg/day, the NEL (rat [20]; [39]) was < 200 mg/kg/day and the LOAEL (rat [21]; group: offspring, developmental / developmental malformation / eye / open eye + systemic / in life observation / body weight / offspring (pup) weight) was 543 mg/kg/day. For the same molecule, the NOAEL (rat [21]; group: offspring, developmental / developmental malformation / eye / open eye + systemic / in life observation / body weight / offspring (pup) weight + …) was 134 mg/kg/day, the LEL (rat [21]; [40]) was 49.1 mg/kg/day and the NEL (rat [21]; [40]) was < 49.1 mg/kg/day. It also gave an LOAEL (rat [21]; [41]) of 543 mg/kg/day, an NOAEL (rat [21]; [41]) of 134 mg/kg/day and an LEL (rat [21]; [42]) of 33.4 mg/kg/day. The NEL (rat [21]; [42]) was < 33.4 mg/kg/day, the LEL (rat [21]; [43]) was 768 mg/kg/day and the LOAEL (rat [21]; [43]) was 768 mg/kg/day. It also gave an NEL (rat [21]; [43]) of 194 mg/kg/day, an NOAEL (rat [21]; [43]) of 194 mg/kg/day and an LOAEL (rat [22]; systemic / in life observation / body weight / body weight + systemic / pathology microscopic / bone marrow / atrophy) of 1000 mg/kg/day. It also gave an NEL (rat [22]; [44]) of 250 mg/kg/day, an NOAEL (rat [22]; [44]) of 500 mg/kg/day and an LEL (rat [22]; systemic / pathology microscopic / bone marrow / atrophy) of 500 mg/kg/day.
